Experimental data: patent publication US20090149536A1, “4-OXO-(ISO)TRETINOIN FOR THE TOPICAL TREATMENT OF SEVERE DERMATOLOGICAL DISORDERS” (priority 2005, published 2009)
Where two headings read alike, the source gives them in different places.

Key:
[1] = in vivo
Source text: Suitable dosages are described herein below and can be determined by a doctor based on usual parameters like e.g. the weight and age of the patient, and the current status of the disease.

[2] = system: severe acne on back or chest; conditions: 2 g cream, 0.5% 4-Oxotretinoin or up to 1% 4-Oxo-Isotretinoin, topical on back, 4 weeks minimum; Leeds grade 5 to 8
Source text: Fifteen male patients aged between 18 and 65 with severe acne on back or chest rated a grade of 5 to 8 according to the Leeds revised acne grading system (Journal of Dermatological Treatment (1989) 9, 215-220) are enrolled in a pilot study.
After completion of the treatment, the grade of the acne in the designated treatment area is once more determined and compared with the surrounding area of the skin.

[3] = system: lipogenesis in epidermis; assay: study of lipogenesis in skin biopsies (14C-Dextrose integrated in epidermis lipids); assay type: in vivo, Fuzzy rats
Protocol: At the end of the treatment, animals were anaesthetized with Pentobarbital 70 mg/kg by IP route. For each rat, two biopsies of 3-mm of dorsal skin per treated region with test substances were collected. Each biopsy was weighed. Rats were sacrificed by inhalation of CO2.
The biopsies (from 175 to 466 mg) were incubated in 1 ml of KRB in presence of 5 μCi D-[U-^14C]-Dextrose/ml at 37° C., 5% CO2 for 3 h.
After incubation, biopsies were rinsed 3 times with 3 ml of KRB. Dermis and epidermis were separated according to method described by Levang A. K. et al..
So, skin biopsies were soaked in water at 60° C. for 45 s. The skin was then removed and blotted dry and pinned with the dermal skin side down. The epidermis and dermis were separated by scrapping and epidermis was weighted.
Each fraction (100 mg) epidermis was cut into small fragments by using scalpels. Fragments were homogenized with chloroform:methanol [(2:1; v:v), Ref. C2432, batch No. 055K0070, Sigma, France: Ref M3641-1L, batch No. 104K3641, Sigma, France] according to the ratio 50 mg of tissue/ml of chloroform:methanol (2:1; v:v) with Potter-Elvehjem type of homogenizer (Ref. 48780, Dutscher, France).
Then, the mixture was washed with 0.2 volume of water. Two phases were separated by centrifugation during 20 min at 800 g.
The rate of lipid extraction was calculated as following: • R=(dpm[4-14C]Cholesterol after extraction)/dpm[4-14C]Cholesterol before extraction×100
The lipogenesis was evaluated as the number of dpm/100 mg tissue. • Lipogenesis=cpm×R×AS (D-[U-^14C]-Dextrose)
At the end of treatment (D25), rats were anaesthetized, skin biopsies were collected and lipogenesis was assessed. Briefly, biopsies were incubated with ^14C-Dextrose in Krebs-Ringer buffer for 3 h at 37° C., 5% CO2. After separation of dermis and epidermis, total lipids were extracted from epidermis. Radioactivity was counted using a β-counter.

[4] = system: sebaceous gland size; assay: study of sebaceous gland size in skin biopsies (histology); assay type: in vivo, Fuzzy rats; conditions: D25
Protocol: The other biopsies were transferred in fixative solution of 4% Paraformaldehyde Fixative (PAF; Ref. 1.04003.5000, Merck, France) solution for further paraffin-embedding and sebaceous gland size analysis.
The size of sebaceous gland was evaluated by histological study of biopsies.
Biopsies fixed in PAF 4% were paraffin-embedded by the ASP 300 (Leica) automat according to the following procedure:
Histological sections of biopsies were realized (5 sections/biopsy).
Each one was colored by Hemalun/Eosin/Safran OTTIX coloration method according to the following protocol:
A microscopic observation by using a CKX41 light microscope (Olympus, France) was performed. Each sebaceous gland within 1 section/biopsy was numerized with a digital camera (Pwershot A80, Canon) and was measured by using ImageJ software 1.32j.
Each sebaceous gland within 1 section/biopsy was numerized with a digital camera (Pwershot A80, Canon) and was measured by using ImageJ software 1.32j. The mean of gland size was calculated for each group.
At the end of treatment (D25; Oct. 13, 2006), rats were anaesthetized, skin biopsies were collected and embedded in paraffin before being stained by an hematoxylin/eosin solution. Biopsies were then observed and numerized by using a microscope. All sebaceous glands within a biopsy were measured.

[5] = system: skin
Source text: Observations and examinations included clinical monitoring of skin reaction and histopathological examination of excised skin specimen at study end.

[6] = topical 1.5% 4-oxo-tretinoin or 2% 4-oxo-isotretinoin, n=5 per compound, serial samples
[7] = system: sebum excretion rate; conditions: cited from earlier work
[8] = system: skin; conditions: in human, applied topically as cream; cited from earlier work
[9] = system: hairless ("fuzzy") rats; conditions: nontoxic dosages (no body weight loss), cited from earlier work
[10] = system: hairless mice; conditions: nontoxic dosages (no body weight loss); cited from earlier work
[11] = system: severe acne; conditions: oral; cited from earlier work
[12] = system: sebaceous gland size and sebum production; conditions: topical versus oral; cited from earlier work
[13] = system: dermal lipogenese and sebum production; conditions: topical; cited from earlier work
[14] = 0.1% topical, 0.025 mg/2 cm^2, (Q1DX5)×4 weeks, D25
[15] = 0.5% topical, 0.125 mg/2 cm^2, (Q1DX5)×4 weeks, D25
[16] = 0.1% topical, 0.025 mg/2 cm^2, (Q1DX5)×4 weeks
[17] = 0.2% topical, 0.050 mg/2 cm^2, (Q1DX5)×4 weeks, D25
[18] = 10 mg/kg PO, (Q1DX5)×4 weeks, D25

CC1=C(/C=C/C(C)=C/C=C/C(C)=C\C(=O)O)C(C)(C)CCC1=O [4-oxo-isotretinoin, 4-oxo-13-cis-retinoic acid]
endogenous plasma level [1]: about 4.85±3.89 ng/mL | clinical rating of the acne in the treated area compared with untreated skin [2]: reduces the clinical rating of the acne in the treated area significantly | Mean DPM ± SD, Epidermis (100 mg) [3, 14]: 5499 ± 2599 DPM | Mean pmole 14C-dextrose ± SD integrated in 100 mg of tissue (epidermis) [3, 14]: 6.95±3.31 pmole of 14C-Dextrose/100 mg | lipogenesis in epidermis, percent of control group [3, 14]: 71% | Mean pmole 14C-dextrose ± SD integrated in 100 mg of tissue (epidermis) ([3]; 0.1% topical, 0.025 mg/2 cm^2, (Q1DX5)×4 weeks, D25, listed as 4-Oxo-isotretinoin): 6.95 ± 3.31 pmole of 14C-Dextrose/100 mg | Mean DPM ± SD, Epidermis (100 mg) [3, 15]: 6524 ± 1792 DPM | Mean pmole 14C-dextrose ± SD integrated in 100 mg of tissue (epidermis) [3, 15]: 8.25±2.28 pmole of 14C-Dextrose/100 mg | lipogenesis in epidermis, percent of control group [3, 15]: 84% | Mean pmole 14C-dextrose ± SD integrated in 100 mg of tissue (epidermis) ([3]; 0.5% topical, 0.125 mg/2 cm^2, (Q1DX5)×4 weeks, D25, listed as 4-Oxo-isotretinoin): 8.25 ± 2.28 pmole of 14C-Dextrose/100 mg | mean sebaceous gland size, Mean ± SD [4, 16]: 24988±15931 pixel^2 | sebaceous gland size, percent of control group [4, 16]: (82%) | mean sebaceous gland size, Mean ± SD ([4]; 0.1% topical, 0.025 mg/2 cm^2, (Q1DX5)×4 weeks, listed as 4-Oxo-isotretinoin): 24998 ± 15931 pixel^2 | skin irritation (clinical monitoring of skin reaction) ([5]; any concentration (0.1, 0.5, 1 or 2%), once daily, 5 days per week, 4 weeks, acetone/ethanol (1:1)): No signs of skin irritation | inter-conversion of the 4-oxo isomers: skin and strip levels of both isomers [6]: skin exposure to both 4-oxo-isotretinoin and 4-oxo-tretinoin could be demonstrated | sebum excretion rate ([7]; applied orally): reduces the sebum excretion rate | pharmacological activity relative to parent drug isotretinoin ([7]; in vivo): only half as active pharmacologically

CC1=C(/C=C/C(C)=C/C=C/C(C)=C/C(=O)O)C(C)(C)CCC1=O [4-oxo-tretinoin, 4-oxo-all-trans-retinoic acid]
endogenous plasma level [1]: about 9.88±7.57 ng/mL | clinical rating of the acne in the treated area compared with untreated skin [2]: reduces the clinical rating of the acne in the treated area significantly | Mean DPM ± SD, Epidermis (100 mg) [3, 14]: 7024 ± 1970 DPM | Mean pmole 14C-dextrose ± SD integrated in 100 mg of tissue (epidermis) [3, 14]: 9.10±5.23 pmole of 14C-Dextrose/100 mg | lipogenesis in epidermis, percent of control group [3, 14]: 91% | Mean pmole 14C-dextrose ± SD integrated in 100 mg of tissue (epidermis) ([3]; 0.1% topical, 0.025 mg/2 cm^2, (Q1DX5)×4 weeks, D25, listed as 4-Oxo-tretinoin): 8.89 ± 2.51 pmole of 14C-Dextrose/100 mg | Mean DPM ± SD, Epidermis (100 mg) [3, 17]: 4993 ± 2219 DPM | Mean pmole 14C-dextrose ± SD integrated in 100 mg of tissue (epidermis) [3, 17]: 6.30±2.80 pmole of 14C-Dextrose/100 mg | lipogenesis in epidermis, percent of control group [3, 17]: 64% | Mean pmole 14C-dextrose ± SD integrated in 100 mg of tissue (epidermis) ([3]; 0.2% topical, 0.050 mg/2 cm^2, (Q1DX5)×4 weeks, D25, listed as 4-Oxo-tretinoin): 6.30 ± 2.80 pmole of 14C-Dextrose/100 mg | histopathological examination of treated skin areas ([5]; concentration-dependent, once daily, 5 days per week, 4 weeks): concentration-dependent hyperkeratosis, acanthosis and hypertrophy/hyperplasia of sebaceous glands | skin irritation (clinical: reddening (erythema) and occasional scaling) ([5]; concentrations ≧0.5% (tested 0.1 to 1.5%), once daily, 5 days per week, 4 weeks): dose-dependent slight to moderate skin irritation | histopathological examination of treated skin areas: necrosis ([5]; concentrations ≧1%): occasional necrosis | inter-conversion of the 4-oxo isomers: skin and strip levels of both isomers [6]: skin exposure to both 4-oxo-isotretinoin and 4-oxo-tretinoin could be demonstrated

CC1=C(/C=C/C(C)=C/C=C/C(C)=C\C(=O)O)C(C)(C)CCC1 [13-cis-RA, 13-cis retinoic acid, reference compound]
Mean DPM ± SD, Epidermis (100 mg) [3, 18]: 5188 ± 1875 DPM | Mean pmole 14C-dextrose ± SD integrated in 100 mg of tissue (epidermis) [3, 18]: 6.55±2.38 pmole of 14C-Dextrose/100 mg | change of lipogenesis in epidermis versus vehicle group ([3]; 10 mg/kg PO, (Q1DX5)×4 weeks, p<0.05): −33% | activity at 10 mg/kg ([3]; Rattus norvegicus, 672 h, 10 mg/kg PO, (Q1DX5)×4 weeks, D25, read-out: lipogenesis in epidermis, percent of control group): 67% | mean sebaceous gland size, Mean ± SD ([4]; 10 mg/kg PO, (Q1DX5)×4 weeks): 25493±17065 pixel^2 | activity at 10 mg/kg ([4]; Rattus norvegicus, 672 h, 10 mg/kg PO, (Q1DX5)×4 weeks, read-out: sebaceous gland size, percent of control group): 83.8% | strength of topical cream that showed local irritation [8]: 0.1% | sebosuppressive effect after topical administration ([9]; listed as 13-cis retinoic acid): no detectable sebosuppressive effects | sebosuppressive effect after topical administration ([9]; listed as 13-cis-retinoic acid): substantially no detectable sebosuppressive activity | sebosuppressive effect after topical administration [10]: no detectable sebosuppressive effects | patients with severe acne reaching long-term remission [11]: 80% | reduction of effectiveness in reducing sebaceous gland size and suppressing sebum production, topical compared to oral administration [12]: up to 90% | influence on the dermal lipogenese and sebum production [13]: Neither topical tretinoin nor topical isotretinoin have been found to have an influence

CC1=C(/C=C/C(C)=C/C=C/C(C)=C/C(=O)O)C(C)(C)CCC1 [tretinoin, all-trans retinoic acid]
strength of topical cream that showed local irritation [8]: 0.05% | influence on the dermal lipogenese and sebum production [13]: Neither topical tretinoin nor topical isotretinoin have been found to have an influence
